Literature values in patent US10561602B2 (priority 2015, dated 2020).

Experiments:
[1] = n-octanol/0.05 M phosphate buffer at pH 7.4
[2] = water and both basic and acidic aqueous solutions

Structure (SMILES): CC(C)C[C@H](CN)CC(=O)O [Pregabalin, (S)-3-(aminomethyl)-5-methylhexanoic acid]
- log of the partition coefficient [1]: about −1.35
- solubility [2]: freely soluble
